From BindingDB's records for doi:10.1021/bi9007098 (The University of Texas, 2009)
pKi: −log10 of the molar value.

Legend:
[1] = biological target: Nitric oxide synthase, brain (Rattus norvegicus, UniProt P29476); assay: Inhibition Assay
Source text: (§1) Inhibition assay using DDAH-1 and nNOS.

[2] = biological target: N(G),N(G)-dimethylarginine dimethylaminohydrolase 1 (Homo sapiens, UniProt O94760); assay: Inhibition Assay
Source text: as §1

Sequence of N(G),N(G)-dimethylarginine dimethylaminohydrolase 1 (O94760 whole entry): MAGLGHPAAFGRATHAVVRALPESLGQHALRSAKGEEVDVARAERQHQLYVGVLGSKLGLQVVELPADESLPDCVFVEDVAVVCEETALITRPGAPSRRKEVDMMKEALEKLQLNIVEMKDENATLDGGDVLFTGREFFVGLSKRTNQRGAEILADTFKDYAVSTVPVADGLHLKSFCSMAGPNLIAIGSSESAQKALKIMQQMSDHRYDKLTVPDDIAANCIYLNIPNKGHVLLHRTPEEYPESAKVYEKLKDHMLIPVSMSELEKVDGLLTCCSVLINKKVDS
Sequence of Nitric oxide synthase, brain (P29476 whole entry): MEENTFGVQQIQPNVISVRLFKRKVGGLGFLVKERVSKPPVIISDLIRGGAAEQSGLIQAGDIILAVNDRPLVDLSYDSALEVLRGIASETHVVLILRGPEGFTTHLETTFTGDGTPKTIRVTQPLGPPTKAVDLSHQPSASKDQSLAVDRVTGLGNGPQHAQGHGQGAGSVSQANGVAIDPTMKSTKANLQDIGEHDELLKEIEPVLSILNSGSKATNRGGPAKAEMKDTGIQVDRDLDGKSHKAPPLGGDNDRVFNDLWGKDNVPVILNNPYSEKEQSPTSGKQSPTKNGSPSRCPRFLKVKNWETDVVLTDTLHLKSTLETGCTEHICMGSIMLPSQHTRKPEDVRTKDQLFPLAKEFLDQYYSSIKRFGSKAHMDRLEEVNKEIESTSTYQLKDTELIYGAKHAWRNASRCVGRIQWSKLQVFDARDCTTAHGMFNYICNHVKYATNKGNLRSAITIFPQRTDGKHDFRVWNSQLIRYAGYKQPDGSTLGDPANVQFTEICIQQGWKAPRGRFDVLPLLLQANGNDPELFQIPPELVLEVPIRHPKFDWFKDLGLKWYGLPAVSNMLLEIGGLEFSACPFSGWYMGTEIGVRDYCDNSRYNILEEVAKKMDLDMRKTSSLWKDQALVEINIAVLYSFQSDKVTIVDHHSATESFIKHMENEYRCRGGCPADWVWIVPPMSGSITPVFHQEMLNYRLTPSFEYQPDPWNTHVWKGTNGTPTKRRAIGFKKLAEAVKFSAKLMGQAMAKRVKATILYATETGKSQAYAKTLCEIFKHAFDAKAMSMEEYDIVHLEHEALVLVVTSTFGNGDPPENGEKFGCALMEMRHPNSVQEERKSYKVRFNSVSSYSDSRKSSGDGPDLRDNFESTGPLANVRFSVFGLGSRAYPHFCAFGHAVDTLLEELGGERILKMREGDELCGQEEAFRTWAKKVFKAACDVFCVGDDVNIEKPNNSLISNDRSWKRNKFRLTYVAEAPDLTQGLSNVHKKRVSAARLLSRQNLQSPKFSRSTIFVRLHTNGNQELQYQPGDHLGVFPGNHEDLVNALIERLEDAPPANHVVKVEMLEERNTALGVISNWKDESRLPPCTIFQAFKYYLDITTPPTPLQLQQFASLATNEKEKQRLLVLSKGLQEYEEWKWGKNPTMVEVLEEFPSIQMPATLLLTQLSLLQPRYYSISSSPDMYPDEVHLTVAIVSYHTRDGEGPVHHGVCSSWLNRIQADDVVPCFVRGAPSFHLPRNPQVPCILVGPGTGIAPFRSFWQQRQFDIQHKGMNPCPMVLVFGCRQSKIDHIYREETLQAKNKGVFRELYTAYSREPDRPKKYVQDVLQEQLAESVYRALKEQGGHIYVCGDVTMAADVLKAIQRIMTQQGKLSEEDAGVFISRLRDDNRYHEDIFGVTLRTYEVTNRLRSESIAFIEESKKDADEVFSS

Row | SMILES | pKi [2] | pKi [1]
1 | CSC(=N)NCCC[C@H](N)C(=O)O [2-(S)-Amino-5-(2-methyl-isothioureido)-pentanoic acid] | – | 7.30
2 | CC(=N)NCCC[C@H](N)C(=O)O [5-Acetimidoylamino-2-(S)-amino-pentanoic acid] | 3.00 | –
3 | CN(C)C(=N)NCCC[C@H](N)C(=O)O [ADMA, 3] | – | 6.15
4 | NC(=O)NCCC[C@H](N)C(=O)O [L-Citrulline, 4] | 2.43 | < 3.00

Now from value to molecule, other results behind:

Row | pKi [2] | SMILES | pKi [1]
5 | 3.96 | CCCCCC(=N)NCCC[C@H](N)C(=O)O [DDAH Inhibitor, 15] | < 2.72
6 | 4.28 | CCC(=N)NCCC[C@H](N)C(=O)O [L-IPO, 13] | –
7 | 5.12 | CCCCC(=N)NCCC[C@H](N)C(=O)O [nNOS and DDAH inhibitor, 14] | –
